From patent US8071565B2 (Novartis AG, priority 2006, dated 2011)
Counter-ions that a name gives are not always drawn.

Target: adenosine A2A receptor (Homo sapiens, UniProt P29274)
Test: adenosine A2A receptor agonist assay (method of Murphree et al, Mol Pharmacol 61, 455-462, 2002)
Format: binding
Details: method of L. J. Murphree et al
Description: Compounds of formula (I) and their pharmaceutically acceptable salts are useful as pharmaceuticals. In particular, they activate the adenosine A2A receptor, i.e., they act as A2A receptor agonists.

adenosine A2A receptor, sequence (P29274 whole entry): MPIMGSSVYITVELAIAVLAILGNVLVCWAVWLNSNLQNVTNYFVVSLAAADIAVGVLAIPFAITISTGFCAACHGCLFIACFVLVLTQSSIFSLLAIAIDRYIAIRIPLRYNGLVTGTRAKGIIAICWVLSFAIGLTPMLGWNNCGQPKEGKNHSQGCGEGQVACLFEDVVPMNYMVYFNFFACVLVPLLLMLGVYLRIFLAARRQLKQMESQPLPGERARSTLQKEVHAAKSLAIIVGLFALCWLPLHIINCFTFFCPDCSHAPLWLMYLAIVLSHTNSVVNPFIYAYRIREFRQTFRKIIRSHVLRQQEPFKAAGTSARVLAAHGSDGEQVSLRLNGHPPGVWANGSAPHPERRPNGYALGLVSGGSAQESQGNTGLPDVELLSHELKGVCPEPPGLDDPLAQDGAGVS

| Ki [µM] | SMILES |
| --- | --- |
| 0.089 | C[C@@H]1NC(=O)N([C@H]2C[C@@H](n3cnc4c(NCC(c5ccccc5)c5ccccc5)nc(N5CC[C@@H](NC(=O)Nc6cccnc6)C5)nc43)[C@H](O)[C@@H]2O)C1=O [Example C1] |
| 0.033 | O=C(Nc1cccnc1)N[C@@H]1CCN(c2nc(NCC(c3ccccc3)c3ccccc3)c3ncn([C@@H]4C[C@H](N5C(=O)CNC5=O)[C@@H](O)[C@H]4O)c3n2)C1 [Example C2, 1-{(R)-1-[9-[(1R,2S,3R,4S)-4-(2,5-Dioxo-imidazolidin-1-yl)-2,3-dihydroxy-cyclopentyl]-6-(2,2-diphenyl-ethylamino)-9H-purin-2-yl]-pyrrolidin-3-yl}-3-pyridin-3-yl-urea trifluoroacetate] |
